Measured values reported in PubChem BioAssay (NCI).
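A five-concentration, 48-hour dose response in 96-well plates underlies each endpoint, interpolated linearly between surrounding concentrations. Here, GI50 denotes the concentration required for 50% inhibition of growth. The concentration for full growth arrest is given as TGI.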

Legend:
Experiment in all cases: NCI anticancer screen, dose series, 48 h
SN12C renal = tested on: SN12C renal
HT29 colon = tested on: HT29 colon
A549 NSCLC = tested on: A549 NSCLC
NCI/ADR-RES ovarian = tested on: NCI/ADR-RES ovarian
A498 renal = tested on: A498 renal
CAKI-1 renal = tested on: CAKI-1 renal
T-47D breast = tested on: T-47D breast
HOP-62 NSCLC = tested on: HOP-62 NSCLC
IGROV1 ovarian = tested on: IGROV1 ovarian
PC-3 prostate = tested on: PC-3 prostate

SMILES	TGI (SN12C renal) [µM]	TGI (HT29 colon) [µM]	TGI (A549 NSCLC) [µM]	TGI (NCI/ADR-RES ovarian) [µM]	TGI (A498 renal) [µM]	TGI (CAKI-1 renal) [µM]	TGI (T-47D breast) [µM]	TGI (HOP-62 NSCLC) [µM]	TGI (IGROV1 ovarian) [µM]	TGI (PC-3 prostate) [µM]	GI50 (SN12C renal) [nM]	GI50 (HT29 colon) [nM]	GI50 (A549 NSCLC) [µM]	GI50 (NCI/ADR-RES ovarian) [nM]	GI50 (A498 renal) [µM]	GI50 (CAKI-1 renal) [nM]	GI50 (T-47D breast) [nM]	GI50 (HOP-62 NSCLC) [µM]	GI50 (IGROV1 ovarian) [nM]	GI50 (PC-3 prostate) [nM]
O=C(O)c1cscc1Cc1cccs1	> 100	> 100	> 100	> 100	> 100	> 100	> 100	> 100	> 100	> 100	–	–	–	–	–	–	–	–	–	–
CN1CCN(c2ccc(NC3=C(Cl)C(=O)c4ncccc4C3=O)cc2C#N)CC1	3.25	5.14	33.7	24.3	25.3	2.31	5.26	34.7	2.82	9.34	1550	2160	17.4	4560	11.7	1090	1760	11.8	1340	2290
C[C@]12C3CC[C@@]4(CO)C[C@]3(CCC1[C@](C)(C(=O)O)CC[C@@H]2O)CC4=O (stereo partly drawn)	> 100	> 100	> 100	> 100	> 100	> 100	> 100	> 100	> 100	> 100	> 100000	> 100000	> 100	> 100000	> 100	> 100000	> 100000	> 100	> 100000	> 100000
CCCCCCC#CC#Cc1cccc(=O)o1	2.97	34.6	30.7	15.7	29.1	9.2	57.2	8.48	–	8.36	1310	3690	9.24	2590	14.9	3400	16600	2.65	2350	2670
NC(=S)N/N=C\c1nccc2c(N)cccc12	> 39.5	> 100	> 27	17.3	1.02	1.01	> 100	> 22	–	> 100	314	454	0.484	375	0.172	243	454	0.352	219	452
COc1ccc2c(c1)cn1c3ccc(O)cc3[nH]c(=O)c21	17.9	2.18	1.82	11.8	20.7	16.3	2.37	17.9	4.77	16.4	403	411	0.301	187	0.377	302	487	0.258	338	244
O=C(Nc1ccc(Cl)cc1)c1cc(S(=O)(=O)Nc2nnc(-c3ccccc3)c(-c3ccccc3)n2)c(SCc2ccccc2)cc1Cl	38.4	> 82	> 62.2	> 80.2	77.9	> 59	> 64.2	> 58.5	> 95.4	> 100	16400	28300	37.2	> 50200	20.4	24800	24800	26.6	33600	39800
Cc1cc(C)c2c(SCc3ccc(Cl)cc3Cl)nc(N)nc2n1	60.7	> 100	> 100	> 100	> 100	> 100	47	> 100	> 100	> 100	–	–	–	–	–	–	–	–	–	–
Oc1c(I)cc(-c2nc3ccccc3s2)cc1CN(Cc1ccccn1)Cc1ccccn1	11.6	27.6	> 100	2.93	4.81	2.47	83.3	68.3	9.06	> 100	446	668	0.427	411	0.484	413	666	0.332	517	308
COC(=O)OCc1ccc2c(c1)C(=O)c1c-2n(CCCBr)c(=O)c2cc([N+](=O)[O-])ccc12	> 100	> 100	> 100	> 100	> 100	75.4	> 100	> 100	> 100	> 100	> 100000	> 100000	> 100	> 100000	57.6	35500	> 100000	27.7	54300	> 100000
COC(=O)C1(C2CC/C(C)=C/CC/C(C)=C/CC[C@@]3(C)O[C@@H]3C2)CC1 (stereo partly drawn)	> 100	> 100	> 80.3	> 100	> 100	> 85	> 100	65.8	> 72	> 100	> 100000	68100	29	> 55000	> 100	32100	> 93000	25.8	30300	36500
Cc1cccc2c1O/C(=C\c1ccc([N+](=O)[O-])o1)C2=O	4.25	1.27	7.81	> 60.4	4.63	1.8	3.69	4.44	5.39	4.11	1570	324	2.56	2540	1.76	494	1200	1.64	1540	1340
CCOc1ccc2ccc3cccnc3c2n1	> 100	> 100	> 100	> 100	76	> 100	> 100	61.4	> 100	> 100	–	–	–	–	–	–	–	–	–	–
O=C(O)c1cc(Cc2ccc(O)c(C(=O)O)c2)ccc1O (tested in a mixture with another compound)	20.6	10.4	28	21	21.9	3.69	13.2	26.6	20.6	19.2	6840	2980	9.82	6480	5.68	1360	2670	10.9	4720	3580
